In US20250230193A1, “CYCLIC COMPOUND HAVING SELECTIVE KRAS INHIBITORY EFFECT ON HRAS AND NRAS” (CHUGAI SEIYAKU KABUSHIKI KAISHA, priority 2022, published 2025):
Where a SMILES comes first, the peptide text is derived from it. Bridges are numbered along the chain shown (N, C = ends). [ ]: non-standard residue; d: D form. The star is where a group is joined. hPhe(3-Cl-4-CF3) = N[C@@H](CCc1ccc(C(F)(F)F)c(Cl)c1)C(=O)O; NPrPhe(4-CF3) = CCCN[C@@H](Cc1ccc(C(F)(F)F)cc1)C(=O)O; NMeGly(cPent) = CN[C@H](C(=O)O)C1CCCC1; NMeD = CN[C@@H](CC(=O)O)C(=O)O; NMeL = CN[C@@H](CC(C)C)C(=O)O; Morpholide = C1CN(*)CCO1; Ac5c = NC1(C(=O)O)CCCC1; Aze = O=C(O)[C@@H]1CCN1; Sar = CNCC(=O)O

Legend:
[1] = target: GDP-bound NRAS wild-type protein (Homo sapiens, UniProt P01111); experiment: Binding to NRAS by surface plasmon resonance (SPR), Single Cycle Kinetics; details: for NRAS/KRAS (ratio of KD value with respect to NRAS to KD value with respect to KRAS) / NRAS/KRAS (ratio of KD value for NRAS to KD value for KRAS) / NRAS/KRAS (ratio of KD for GDP-bound NRAS wild-type to KD for KRAS): SPR; for NRAS/KRAS (ratio of KD value with respect to NRAS to KD value with respect to KRAS) / NRAS/KRAS (ratio of KD value for NRAS to KD value for KRAS): GDP-bound NRAS wild-type vs GDP-bound KRAS wild-type; for NRAS/KRAS (ratio of KD value with respect to GDP-bound NRAS wild-type protein to KD value with respect to KRAS): class symbols
[2] = target: GDP-bound HRAS wild-type protein (Homo sapiens, UniProt P01112); experiment: Binding to HRAS by surface plasmon resonance (SPR), Single Cycle Kinetics; details: for HRAS/KRAS (ratio of KD value with respect to HRAS to KD value with respect to KRAS) / HRAS/KRAS (ratio of KD value for HRAS to KD value for KRAS) / HRAS/KRAS (ratio of KD for GDP-bound HRAS wild-type to KD for KRAS): SPR; for HRAS/KRAS (ratio of KD value with respect to HRAS to KD value with respect to KRAS) / HRAS/KRAS (ratio of KD value for HRAS to KD value for KRAS): GDP-bound HRAS wild-type vs GDP-bound KRAS wild-type; for HRAS/KRAS (ratio of KD value with respect to GDP-bound HRAS wild-type protein to KD value with respect to KRAS): class symbols
GDP-bound HRAS wild-type protein, sequence (P01112 whole entry): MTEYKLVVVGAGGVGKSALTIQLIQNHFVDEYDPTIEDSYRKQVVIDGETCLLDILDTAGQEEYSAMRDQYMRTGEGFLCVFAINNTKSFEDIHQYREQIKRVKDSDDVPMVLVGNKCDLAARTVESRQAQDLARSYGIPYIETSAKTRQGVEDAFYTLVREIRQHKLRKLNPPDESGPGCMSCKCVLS

GDP-bound NRAS wild-type protein, sequence (P01111 whole entry): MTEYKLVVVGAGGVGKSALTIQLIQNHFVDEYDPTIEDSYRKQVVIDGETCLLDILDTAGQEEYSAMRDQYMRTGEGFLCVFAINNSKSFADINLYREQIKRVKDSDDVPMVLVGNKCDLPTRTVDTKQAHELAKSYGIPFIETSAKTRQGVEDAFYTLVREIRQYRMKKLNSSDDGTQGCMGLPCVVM

In the case of `CCOC[C@H]1C(=O)N[C@@H]([C@@H](C)CC)C(=O)N2CCC[C@H]2C(=O)N(C)[C@H]2C/C=C\CCN(C2=O)[C@@H](Cc2ccc(C(F)(F)F)cc2)C(=O)N(C)CC(=O)N[C@@H](CCc2ccc(C(F)(F)F)c(OC)c2)C(=O)N2C[C@H](OCC)C[C@H]2C(=O)N(C)C2(CCC2)C(=O)N(C)[C@@H](C(CC)CC)C(=O)N(C)[C@H](C(=O)N(C)C)CC(=O)N1C` [PP2319], the “NRAS/KRAS (ratio of KD value with respect to NRAS to KD value with respect to KRAS)” value [1] is reported as “AA (a compound having 20 or more is denoted as AA)” and the “HRAS/KRAS (ratio of KD value with respect to HRAS to KD value with respect to KRAS)” value [2] is reported as “A (a compound having 10 or more and less than 20 is denoted as A)”.

With `CCO[C@@H]1C[C@H]2C(=O)NC3(CC(C)(C)C3)C(=O)N(C)[C@@H](C(CC)CC)C(=O)N(C)[C@H](C(=O)N(C)C)CC(=O)N(C)[C@@H](COC)C(=O)N[C@@H]([C@@H](C)CC)C(=O)N(C)CC(=O)N(C)[C@H]3C/C=C\CCN(C3=O)[C@@H](CC3CCCCC3)C(=O)N(C)CC(=O)N[C@@H](CCc3ccc(C(F)(F)F)c(OC)c3)C(=O)N2C1` [PP2452] the “NRAS/KRAS (ratio of KD value with respect to NRAS to KD value with respect to KRAS)” value [1] was “A (a compound having 10 or more and less than 20 is denoted as A)” and the “HRAS/KRAS (ratio of KD value with respect to HRAS to KD value with respect to KRAS)” value [2] was “A (a compound having 10 or more and less than 20 is denoted as A)”.

For `CC[C@H](C)[C@@H]1NC(=O)[C@H](COC)N(C)C(=O)C[C@@H](C(=O)N(C)C)N(C)C(=O)[C@H](C2CCCCC2)N(C)C(=O)C2(CC(C)(C)C2)NC(=O)[C@@H]2C[C@@H](OC(C)C)CN2C(=O)[C@H](CCc2cc(F)c(C(F)(F)F)c(F)c2)NC(=O)CN(C)C(=O)[C@H](Cc2ccc(C(F)(F)F)cc2)N2CC/C=C\C[C@@H](C2=O)N(C)C(=O)CN(C)C1=O` [PP2654], the “NRAS/KRAS (ratio of KD value with respect to GDP-bound NRAS wild-type protein to KD value with respect to KRAS)” value [1] was “A (a compound having 10 or more and less than 20 is denoted as A)” and the “HRAS/KRAS (ratio of KD value with respect to GDP-bound HRAS wild-type protein to KD value with respect to KRAS)” value [2] was “A (a compound having 10 or more and less than 20 is denoted as A)”.

In the case of `CCO[C@@H]1C[C@H]2C(=O)NC3(CC(C)(C)C3)C(=O)N(C)[C@@H](C3CCCC3)C(=O)N(C)[C@H](C(=O)N(C)CC)CC(=O)N(C)[C@@H](CC)C(=O)N[C@@H]([C@@H](C)CC)C(=O)N(C)CC(=O)N(C)[C@H]3C/C=C\CCN(C3=O)[C@@H](Cc3ccc(C)cc3)C(=O)N(C)CC(=O)N[C@@H](CCc3ccc(C(F)(F)F)c(OC)c3)C(=O)N2C1` [PP1872], the “NRAS/KRAS (ratio of KD value for NRAS to KD value for KRAS)” value ([1]; KD ratio) is reported as “A (a compound having 10 or more and less than 20 is denoted as A)” and the “HRAS/KRAS (ratio of KD value for HRAS to KD value for KRAS)” value ([2]; KD ratio) is reported as “A (a compound having 10 or more and less than 20 is denoted as A)”.

With `C#CC[C@H]1C(=O)N[C@@H]([C@@H](C)CC)C(=O)N(C)CC(=O)N(C)[C@H]2C/C=C\CCN(C2=O)[C@@H](Cc2ccc(C(F)(F)F)cc2)C(=O)N(C)CC(=O)N[C@@H](CCc2cc(F)c(C(F)(F)F)c(F)c2)C(=O)N2C[C@H](F)C[C@H]2C(=O)NC2(CC(C)(C)C2)C(=O)N(C)[C@@H](C2CCCC2)C(=O)N(C)[C@H](C(=O)N(C)CCC)CC(=O)N1C` [PP1692] the “NRAS/KRAS (ratio of KD value for NRAS to KD value for KRAS)” value ([1]; KD ratio) was “AA (a compound having 20 or more is denoted as AA)” and the “HRAS/KRAS (ratio of KD value for HRAS to KD value for KRAS)” value ([2]; KD ratio) was “A (a compound having 10 or more and less than 20 is denoted as A)”.

For `CCCN1C(=O)[C@@H]2CCN2C(=O)[C@H](C)N(C)C(=O)[C@H]([C@@H](C)CC)NC(=O)[C@H](CC(C)C)N(C)C(=O)C[C@@H](C(=O)N2CCOCC2)N(C)C(=O)[C@H](C2CCCC2)N(C)C(=O)C2(CCCC2)NC(=O)[C@@H]2C[C@H](O)CN2C(=O)[C@H](CCc2ccc(C(F)(F)F)c(Cl)c2)NC(=O)CN(C)C(=O)[C@@H]1Cc1ccc(C(F)(F)F)cc1` (stereo in doubt) [PP0238], the “NRAS/KRAS (ratio of KD for GDP-bound NRAS wild-type to KD for KRAS)” value [1] was “C (A compound having a KD ratio of 0.1 or more and less than 3 is denoted as C)” and the “HRAS/KRAS (ratio of KD for GDP-bound HRAS wild-type to KD for KRAS)” value [2] was “C (A compound having a KD ratio of 0.1 or more and less than 3 is denoted as C)”.

`C#CCN1CC(=O)N(C)[C@H]2C/C=C\CCN(C2=O)[C@@H](Cc2ccc(C(F)(F)F)cc2)C(=O)N(C)CC(=O)N[C@@H](CCc2ccc(C(F)(F)F)c(OC)c2)C(=O)N2C[C@H](OCC)C[C@H]2C(=O)NC2(CC(C)(C)C2)C(=O)N(C)[C@@H](C2CCCC2)C(=O)N(C)[C@H](C(=O)N(C)C)CC(=O)N(C)[C@@H](CC)C(=O)N[C@@H]([C@@H](C)CC)C1=O` [PP2091] was tested, and the “NRAS/KRAS (ratio of KD value with respect to NRAS to KD value with respect to KRAS)” value [1] was “A (a compound having 10 or more and less than 20 is denoted as A)” and the “HRAS/KRAS (ratio of KD value with respect to HRAS to KD value with respect to KRAS)” value [2] was “B (a compound having 3 or more and less than 10 is denoted as B)”.

For `CCO[C@@H]1C[C@H]2C(=O)NC3(CCCC3)C(=O)N(C)[C@@H](C3CCCC3)C(=O)N(C)[C@H](C(=O)N(C)C)CC(=O)N(C)[C@@H](CC(C)C)C(=O)N[C@@H]([C@@H](C)CC)C(=O)N(C)CC(=O)N(C)[C@H]3C/C=C\CCN(C3=O)[C@@H](Cc3ccc(C(F)(F)F)cc3)C(=O)N(C)CC(=O)N[C@@H](CCc3ccc(Cl)c(Cl)c3)C(=O)N2C1` [PP2837], the “NRAS/KRAS (ratio of KD value with respect to GDP-bound NRAS wild-type protein to KD value with respect to KRAS)” value [1] was “AA (a compound having 20 or more is denoted as AA)” and the “HRAS/KRAS (ratio of KD value with respect to GDP-bound HRAS wild-type protein to KD value with respect to KRAS)” value [2] was “A (a compound having 10 or more and less than 20 is denoted as A)”.

With `CCCN1C(=O)[C@@H]2CCN2C(=O)[C@H](C)NC(=O)[C@H]([C@@H](C)CC)NC(=O)[C@H](CC(C)C)N(C)C(=O)C[C@@H](C(=O)N2CCOCC2)N(C)C(=O)[C@H](C2CCCC2)N(C)C(=O)C2(CCCC2)NC(=O)[C@@H]2CCCN2C(=O)[C@H](CCc2ccc(C(F)(F)F)c(Cl)c2)NC(=O)CN(C)C(=O)[C@@H]1Cc1ccc(C(F)(F)F)cc1` [PP0078] ([NMeL]IA[Aze][NPrPhe(4-CF3)][Sar][hPhe(3-Cl-4-CF3)]P[Ac5c][NMeGly(cPent)][NMeD]-Morpholide; lactam N-11) the “NRAS/KRAS (ratio of KD for GDP-bound NRAS wild-type to KD for KRAS)” value [1] was “C (A compound having a KD ratio of 0.1 or more and less than 3 is denoted as C)” and the “HRAS/KRAS (ratio of KD for GDP-bound HRAS wild-type to KD for KRAS)” value [2] was “B (a compound having 3 or more and less than 10 is denoted as B)”.

For `CCO[C@@H]1C[C@H]2C(=O)NC3(CCC3)C(=O)N(C)[C@@H](C3CCCC3)C(=O)N(C)[C@H](C(=O)N3CCOCC3)CC(=O)N(C)[C@@H](CC(C)C)C(=O)N[C@@H]([C@@H](C)CC)C(=O)N(C)CC(=O)N(C)[C@H]3CCCCCN(C3=O)[C@@H](Cc3ccc(F)c(C)c3)C(=O)N(C)CC(=O)N[C@@H](CCc3cc(F)c(C(F)(F)F)c(F)c3)C(=O)N2C1` [PP0922], the “NRAS/KRAS (ratio of KD value with respect to NRAS to KD value with respect to KRAS)” value ([1]; KD ratio) was “B (a compound having 3 or more and less than 10 is denoted as B)” and the “HRAS/KRAS (ratio of KD value with respect to HRAS to KD value with respect to KRAS)” value ([2]; KD ratio) was “B (a compound having 3 or more and less than 10 is denoted as B)”.

With `CCC[C@H]1C(=O)N[C@@H]([C@@H](C)CC)C(=O)N(C2CC2)CC(=O)N(C)[C@H]2C/C=C\CCN(C2=O)[C@@H](CC2CCCCC2)C(=O)N(C)CC(=O)N[C@@H](CCc2ccc(C(F)(F)F)c(OC)c2)C(=O)N2C[C@@H](C)C[C@H]2C(=O)N(C)C2(CCC2)C(=O)N(C)[C@@H](C2CCCC2)C(=O)N(C)[C@H](C(=O)N(C)C)CC(=O)N1C` [PP2372] the “NRAS/KRAS (ratio of KD value with respect to NRAS to KD value with respect to KRAS)” value [1] was “A (a compound having 10 or more and less than 20 is denoted as A)” and the “HRAS/KRAS (ratio of KD value with respect to HRAS to KD value with respect to KRAS)” value [2] was “B (a compound having 3 or more and less than 10 is denoted as B)”.
